Holding throughout (assay type): biochemical
For assay [1], the target named is T1, HexA (human lysosomal β-hexosaminidase A) (Homo sapiens, UniProt P06865).
T1 construct: HexA activities in cell lysates were also determined in 0.1 M citrate buffer at pH 5 or pH 7; endogenous in cells; host or cells: human fibroblasts (lysate)
T1 sequence (P06865 89-529): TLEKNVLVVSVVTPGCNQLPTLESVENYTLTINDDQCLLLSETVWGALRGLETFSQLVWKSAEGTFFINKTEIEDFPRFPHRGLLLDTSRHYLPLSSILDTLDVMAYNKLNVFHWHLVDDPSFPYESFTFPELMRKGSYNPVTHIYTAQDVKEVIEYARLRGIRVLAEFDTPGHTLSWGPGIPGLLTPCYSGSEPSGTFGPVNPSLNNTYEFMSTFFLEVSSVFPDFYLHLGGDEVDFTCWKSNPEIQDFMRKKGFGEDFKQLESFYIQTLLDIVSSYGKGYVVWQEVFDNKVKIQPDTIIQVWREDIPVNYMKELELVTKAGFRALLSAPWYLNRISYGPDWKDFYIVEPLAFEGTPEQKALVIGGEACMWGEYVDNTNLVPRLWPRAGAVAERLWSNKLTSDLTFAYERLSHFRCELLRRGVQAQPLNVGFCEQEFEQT
T1 sequence (P07686 122-556 partner): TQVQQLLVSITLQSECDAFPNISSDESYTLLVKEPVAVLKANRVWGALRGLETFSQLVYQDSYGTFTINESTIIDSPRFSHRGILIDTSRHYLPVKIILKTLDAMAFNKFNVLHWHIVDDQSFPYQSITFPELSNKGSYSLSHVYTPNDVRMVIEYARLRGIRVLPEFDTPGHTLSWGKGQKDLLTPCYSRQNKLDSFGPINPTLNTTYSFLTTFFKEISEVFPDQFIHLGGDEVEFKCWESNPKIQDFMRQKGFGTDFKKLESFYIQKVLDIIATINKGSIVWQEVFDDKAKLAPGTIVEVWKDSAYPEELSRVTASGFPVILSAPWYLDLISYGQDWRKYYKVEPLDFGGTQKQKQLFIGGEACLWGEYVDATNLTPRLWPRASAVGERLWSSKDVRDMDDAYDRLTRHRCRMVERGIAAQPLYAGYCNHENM
The experiment in a line: Inhibition of HexA in human fibroblast lysates at pH 7 or pH 5. As for the experimental part:
(§1) For determination of lysosomal enzyme activities in cell lysates, cells were scraped into ice-cold H2O (10^6 cells mL^−1) and lysed by sonication. Insoluble materials were removed by centrifugation at 15,000 rpm for 5 min and protein concentrations were determined with Protein Assay Rapid Kit (WAKO, Tokyo, Japan). 10 µL of the lysates in 0.1% Triton X-100 in distilled water were incubated at 37 °C with 20 µL of the substrate solution in 0.1 M citrate buffer, pH 4.5, in absence or presence of increasing concentrations of the chaperones. The substrates were 4-methylumbelliferone (4-MU)-conjugated β-D-glucopyranoside (for GCase), α-D-glucopyranoside (for α-glucosidase), α-D-galactopyranoside (for α-Galase), β-D-galactopyranoside (for β-galactosidase), N-acetyl-β-D-glucosaminide (for total β-hexosaminidase), N-acetyl-β-D-glucosaminide-6-sulfate sodum salt (for HexA) and α-N-acetyl-D-galactosaminide for α-N-acetylgalactosaminidase. HexA activities in cell lysates were also determined in 0.1 M citrate buffer at pH 5 or pH 7, supplemented with sodium taurocholate (0.8% w/v). The reactions were terminated by adding 0.2 ml of 0.2 M glycine sodium hydroxide buffer (pH 10.7). The liberated 4-methylumbelliferone was measured in the black-well plate with a Perkin Elmer Luminescence Spectrometer (excitation wavelength: 340 nm; emission: 460 nm). One unit of enzyme activity was defined as nmol of 4-methylumbelliferone released per hour and normalised for the amount of protein contained in the lysates.

Assay [2] addresses β-hexosaminidase from human placenta. The experiment in a line: Commercial enzyme inhibition assay, β-hexosaminidase from human placenta. As to conditions: mean ± SD (n = 3); competitive. The method, then: (§2) Inhibition constant (Ki) values were determined by spectrophotometrically measuring the residual hydrolytic activities of the glycosidases against the respective o- (for β-galactosidase from E. coli) or p-nitrophenyl α- or β-D-glycopyranoside (for other glycosidases) in the presence of the iminosugars. Each assay was performed in phosphate buffer or phosphate-citrate buffer (for α- or β-mannosidase, amyloglucosidase or β-N-acetylglucosaminidase) at the optimal pH for the enzymes. The reactions were initiated by addition of the enzyme to a solution of the substrate in the absence or presence of various inhibitor concentrations. The mixture was incubated for 10–30 min at 37 °C or 55 °C (for amyloglucosidase) and the reaction was quenched by addition of 1 m Na2CO3. Reaction times were appropriate to obtain 10%–20% conversion of the substrate in order to achieve linear rates. The absorbance of the resulting mixture was determined at 405 nm. Approximate values of Ki were determined using a fixed concentration of substrate (around the KM value for the different glycosidases) and various inhibitor concentrations. Full Ki determinations and the enzyme inhibition mode were determined from the slope of Lineweaver-Burk plots and double reciprocal analysis.

Assay [3] concerns the target β-hexosaminidase from bovine kidney. The experiment in a line: Commercial enzyme inhibition assay, β-hexosaminidase from bovine kidney. As to conditions: mean ± SD (n = 3); competitive. The method, then:
as §2

For assay [4], the target named is β-hexosaminidase from Jack bean. Description: Commercial enzyme inhibition assay, β-hexosaminidase from Jack bean. As to conditions: mean ± SD (n = 3); competitive. As for the experimental part:
as §2

In assay [5] the target is Total Hex (human lysosomal β-hexosaminidase). The experiment in a line: Inhibition of total β-hexosaminidase in human fibroblast lysates. As to conditions: mean of three determinations. The method, then: as §1
Where [6] appears, read: pH 5, competitive, read-out: Ki HexA pH 5.
The mark [7] stands for this setting: pH 7, competitive, read-out: Ki HexA pH 7.

SMILES strings stand for the structures. Like-named read-outs stand apart in the source and are kept apart here.

By Ki is commonly meant the equilibrium dissociation constant of an inhibitor or competing ligand from its target. One may read the IC50 as the concentration at which inhibition is half-maximal. The low end stands for inhibition by little substance, the high end for a need for much substance. As for `CCCCNC(=S)N1C[C@H](NC(C)=O)[C@@H](O)[C@@H](O)[C@H]1CO` [Compound 1, 2-Acetamido-1,2-dideoxy-5-N-(N’-butylthiocarbamoyl)galactonojirimycin], the Ki in assay [1] (setting [6]) was 33700 nM; in assay [1] (setting [7]), 4700 nM; in assay [2], 4800 ± 200 nM; in assay [3], 3500 ± 200 nM; in assay [4] it was 3000 ± 100 nM. The IC50 in assay [5] was > 100000 nM.
As for `CCCCCCCCNC(=S)N1C[C@H](NC(C)=O)[C@@H](O)[C@@H](O)[C@H]1CO` [Compound 2, 2-Acetamido-1,2-dideoxy-5-N-(N’-octylthiocarbamoyl)galactonojirimycin], the Ki is > 100000 nM in assay [1] (setting [6]); > 100000 nM in assay [1] (setting [7]); 3000 ± 100 nM in assay [2]; 2200 ± 100 nM in assay [3]; 7200 ± 200 nM in assay [4]. The IC50 in assay [5] was > 100000 nM.
Take `CC(=O)N[C@H]1CN(C(=S)NCc2ccccc2)[C@H](CO)[C@H](O)[C@@H]1O` [Compound 3, 2-Acetamido-1,2-dideoxy-5-N-(N’-benzylthiocarbamoyl)galactonojirimycin]: the Ki in assay [1] (setting [6]) is > 100000 nM; in assay [1] (setting [7]), > 100000 nM; in assay [2] it was 16000 ± 500 nM; in assay [3], 6300 ± 200 nM; in assay [4], 5100 ± 200 nM. Further, in assay [5], the IC50 is > 100000 nM.
For `CC(=O)N[C@H]1CN(C(=S)Nc2ccccc2)[C@H](CO)[C@H](O)[C@@H]1O` [Compound 4, 2-Acetamido-1,2-dideoxy-5-N-(N’-phenylthiocarbamoyl)galactonojirimycin], the Ki in assay [1] (setting [6]) worked out at 9400 nM; in assay [1] (setting [7]), 910 nM; in assay [2] it was 240 nM; in assay [3], 140 ± 10 nM; in assay [4], 65 nM. This compound returned an IC50 in assay [5] of 10900 nM.
Turning to `CCCCN=C1SCC2C(O)C(O)C(NC(C)=O)CN12` (stereo not drawn) [Compound 5, 2-Acetamido-1,2-dideoxy-5-N,6-S-(N’-butyliminomethylidene)-6-thiogalactonojirimycin], the inhibitory constant (Ki) in assay [1] (setting [6]) turned out to be 9800 nM; in assay [1] (setting [7]) it was 990 nM; in assay [2], 55 ± 2 nM; in assay [3], 24 ± 2 nM; in assay [4], 140 ± 10 nM. The same compound registered an IC50 in assay [5] of 2600 nM.
Regarding `CCCCCCCCN=C1SCC2C(O)C(O)C(NC(C)=O)CN12` (stereo not drawn) [Compound 6, 2-Acetamido-1,2-dideoxy-5-N,6-S-(N’-octyliminomethylidene)-6-thiogalactonojirimycin], the Ki in assay [1] (setting [6]) was 6400 nM; in assay [1] (setting [7]), 580 nM; in assay [2], 26 ± 1 nM; in assay [3] it was 15 ± 1 nM; in assay [4], 48 ± 2 nM. In assay [5], this compound yielded an IC50 of 1300 nM.
For `CC(=O)NC1CN2C(=NCc3ccccc3)SCC2C(O)C1O` (stereo not drawn) [Compound 7, 2-Acetamido-1,2-dideoxy-5-N,6-S-(N’-benzyliminomethylidene)-6-thiogalactonojirimycin], the Ki was 6900 nM in assay [1] (setting [6]); 660 nM in assay [1] (setting [7]); 26 ± 1 nM in assay [2]; 20 ± 1 nM in assay [3]; 88 ± 3 nM in assay [4]. Moreover, 2200 nM corresponded to half-maximal inhibition in assay [5] (IC50).
Consider `CC(=O)NC1CN2C(=Nc3ccccc3)SCC2C(O)C1O` (stereo not drawn) [Compound 8, 2-Acetamido-1,2-dideoxy-5-N,6-S-(N’-phenyliminomethylidene)-6-thiogalactonojirimycin], for which the Ki in assay [1] (setting [6]) turned out to be 3900 nM; in assay [1] (setting [7]), 410 nM; in assay [2], 44 ± 2 nM; in assay [3], 46 ± 2 nM; in assay [4], 130 ± 10 nM. The compound further had an IC50 in assay [5] of 330 nM.

For the origin of these results see publication PMC9126592, “sp^2-Iminosugars targeting human lysosomal β-hexosaminidase as pharmacological chaperone candidates for late-onset Tay-Sachs disease” (Journal of Enzyme Inhibition and Medicinal Chemistry, 2022).
